In US20220133833A1, “USE OF GRAPE AND/OR SOY SUPPLEMENTS AGAINST COVID-19 AND 92 OTHER VIRUSES AND BACTERIA INCLUDING OTHER UNKNOWN VIRUSES AND BACTERIA” (priority 2020, published 2022):
Read-outs that look alike come from different tables or passages of the source.

Tested on: H1N1 virus
[1] = one-week preventive treatment, 0.2 ml/0.4 ml/mouse iv/ip QD, till the end of the study

## APOA-1 [RAAS-2]
mice, H1N1
  prevention of the Bird Flu Epidemiology in Mice: 100%
[1]
  protection from body weight loss: totally protected
  protection from death: totally protected
Preventive treatment
  protection of body weight loss compared with oseltamivir treatment: even better than that by oseltamivir treatment
Therapeutic group (G2), some of the mice, day 5 post H1N1 challenge and afterward
  adverse finding / tolerance: haematuria
Therapeutic treatment, 0.2 ml/0.4 ml iv/ip QD, all 5 mice, days 2 to 5 post H1N1 infection
  protection from body weight loss: partial
Therapeutic treatment, 0.2 ml/0.4 ml iv/ip QD, group of 5 mice
  mice protected from death: one mouse out of 5 mice
